Measurements as given in ChEMBL document CHEMBL3407451, “Novel approach to bis(indolyl)methanes: de novo synthesis of 1-hydroxyiminomethyl derivatives with anti-cancer properties” (Eur J Med Chem, 2015).

Columns and labels:
[1] = system: HepG2; test: Selectivity index, ratio of IC50 for human HepG2 cells to IC50 for mouse N9 cells; assay type: functional
[2] = system: N9; test: Selectivity index, ratio of IC50 for human MDA-MB-468 cells to IC50 for mouse N9 cells; assay type: functional
[3] = system: N9; test: Selectivity index, ratio of IC50 for mouse RAW264.7 cells to IC50 for mouse N9 cells; assay type: functional
[4] = system: N9; test: Selectivity index, ratio of IC50 for human THP1 cells to IC50 for mouse N9 cells; assay type: functional
[5] = system: EL4; test: Selectivity index, ratio of IC50 for mouse EL4 cells to IC50 for mouse N9 cells; assay type: functional
[6] = system: N9; test: Selectivity index, ratio of IC50 for human U937 cells to IC50 for mouse N9 cells; assay type: functional
[7] = system: HepG2; test: Cytotoxicity against human HepG2 cells assessed as reduction in cell viability after 72 hrs by MTT colorimetric assay; assay type: functional, cell-based; conditions: HepG2, 72 h
[8] = system: MDA-MB-468; test: Cytotoxicity against human MDA-MB-468 cells assessed as reduction in cell viability after 72 hrs by MTT colorimetric assay; assay type: functional, cell-based; conditions: MDA-MB-468, 72 h
[9] = system: RAW264.7; test: Cytotoxicity against mouse RAW264.7 cells assessed as reduction in cell viability after 72 hrs by MTT colorimetric assay; assay type: functional, cell-based; conditions: RAW264.7, 72 h
[10] = system: THP-1; test: Cytotoxicity against human THP1 cells assessed as reduction in cell viability after 72 hrs by MTT colorimetric assay; assay type: functional, cell-based; conditions: THP-1, 72 h
[11] = system: EL4; test: Cytotoxicity against mouse EL4 cells assessed as reduction in cell viability after 72 hrs by MTT colorimetric assay; assay type: functional, cell-based; conditions: EL4, 72 h
[12] = Cytotoxicity against human U937 cells assessed as reduction in cell viability after 72 hrs by MTT colorimetric assay; assay type: functional, cell-based; conditions: U-937, 72 h
[13] = Cytotoxicity against mouse S17 cells assessed as reduction in cell viability after 72 hrs by MTT colorimetric assay; assay type: cell-based; conditions: S17, 72 h
[14] = system: HepG2; test: Selectivity index, ratio of IC50 for human HepG2 cells to IC50 for mouse S17 cells; assay type: functional
[15] = Selectivity index, ratio of IC50 for human MDA-MB-468 cells to IC50 for mouse S17 cells; assay type: functional
[16] = system: THP-1; test: Selectivity index, ratio of IC50 for human THP1 cells to IC50 for mouse S17 cells; assay type: functional

| SMILES | Ratio IC50 [1] | Ratio IC50 [2] | Ratio IC50 [3] | Ratio IC50 [4] | Ratio IC50 [5] | Ratio IC50 [6] | IC50 [7] | IC50 [8] | IC50 [9] | IC50 [10] | IC50 [11] | IC50 [12] | IC50 [13] | Ratio IC50 [14] | Ratio IC50 [15] | Ratio IC50 [16] |
| --- | --- | --- | --- | --- | --- | --- | --- | --- | --- | --- | --- | --- | --- | --- | --- | --- |
| O/N=C(/c1ccc(Br)cc1)C(c1c[nH]c2ccccc12)c1c[nH]c2ccccc12 | 1.38 | 1.04 | 0.96 | 14.2 | 13.94 | 14.02 | 16.6 µM | 22.1 µM | 23.9 µM | 1.62 µM | 1.65 µM | 1.64 µM | 16.3 µM | 0.98 | 0.73 | 10.04 |
| COc1cc([C@@H]2c3cc4c(cc3[C@@H](O[C@@H]3O[C@@H]5CO[C@@H](C)O[C@H]5[C@H](O)[C@H]3O)[C@H]3COC(=O)[C@H]23)OCO4)cc(OC)c1O [ETOPOSIDE] | 1.71 | 0.88 | – | – | 0.8 | – | 1.4 µM | 6.69 µM | 0.82 µM | 1.82 µM | 4.9 µM | 1.1 µM | 10.4 µM | 8.97 | – | 8.55 |
| Cn1cc(C(/C(=N\O)c2ccc(Br)cc2)c2cn(C)c3ccccc23)c2ccccc21 | 0.56 | 0.31 | 0.47 | 0.16 | 0.19 | 0.2 | 35.7 µM | 63.7 µM | 42.2 µM | 124 µM | 106 µM | 97 µM | 51.4 µM | 1.44 | 0.81 | 0.41 |
| O/N=C(/c1ccc(F)cc1)C(c1c[nH]c2ccccc12)c1c[nH]c2ccccc12 | – | – | – | – | – | – | – | – | – | 23 µM | 16.9 µM | 28 µM | 24.9 µM | – | – | 0.89 |
| C/C(=N/O)C(c1c[nH]c2ccccc12)c1c[nH]c2ccccc12 | – | – | – | – | – | – | – | – | – | 57.6 µM | 39 µM | 59.3 µM | 35.8 µM | – | – | 0.6 |
| O/N=C(/c1ccccc1)C(c1c[nH]c2ccccc12)c1c[nH]c2ccccc12 | 1.05 | 2.72 | 2.4 | 1.61 | 2.45 | 0.86 | 28 µM | 10.7 µM | 12.2 µM | 18.1 µM | 11.9 µM | 34.1 µM | 26.3 µM | 0.94 | 2.45 | – |
| C/C(=N\O)C(c1c[nH]c2ccccc12)c1c[nH]c2ccccc12 | – | – | – | – | – | – | – | – | – | 30.7 µM | 23.9 µM | 42.5 µM | 26.1 µM | – | – | 0.62 |
